Read-outs that look alike come from different tables or passages of the source.
Test system: C3H10T1/2 cells
Assay: Adipocyte differentiation: lipid accumulation in induced C3H10T1/2 pre-adipocytes (Bodipy stain, Cellomics ArrayScan)
Assay type: cell-based
Conditions: for activity at 0.5 µM / activity at 1 µM / activity at 2 µM / activity at 5 µM / activity at 25 µM: Mus musculus, C3H 10T1/2, 168 h, read-out: Cellular lipids (in % of differentiated cells); for activity at 0.5 µM / activity at 1 µM / activity at 2 µM / Cellular lipids (in % of differentiated cells) / activity at 5 µM / activity at 25 µM: 7 days; for Effect on amount of cytoplasmic lipids (in words): single substances, summary of Table 1
Method: In the present invention, the effect of agents was identified by using cellular assays that measure the effect on adipocyte differentiation. Adherent pre-adipocyte cells, C3H10T1/2, were used; they were cultured in complete DMEM/FCS, i.e. Dulbecco's modified essential medium (DMEM) supplemented with penicillin/streptomycin [50 U penicillin/ml, […] streptomycin/ml] and 10% fetal calf serum (FCS) and passaged every 3-5 days. For experiments, C3H10T1/2 cells were re-suspended in DMEM/FCS without phenol red and seeded at […] cells/per well in collagen I pre-coated 24-well plates. After 2-3 days cells reached confluence. Culture medium was changed and cell differentiation was induced by adding induction medium consisting of rosiglitazone and insulin (at 50 μmol/L and 200 nmol/L, respectively). In some cases the induction medium consisted of […] dexamethasone and 500 μmol/L 3-isobutyl-1-methylxanthine. Control cells were cultured in DMEM/FCS containing only insulin. Where appropriate, substances were added to the differentiation medium at various concentrations at the time of induction, except for carotenoids which were added at the beginning of culture in order to preload the cells. The induction medium was changed every 2-3-days. Seven days after induction, cells were fixed in 60% isopropanol (40% water). After two washes in phosphate buffered saline (PBS), cells were stained with the neutral lipid stain Bodipy® 493/505 (0.5 μg/ml) and the nuclear stain Hoechst 33342 dye (2 μg/ml) for 30 minutes in the dark. After washing with PBS, the stained cells were stored at 4° C. in PBS. The extent of differentiation was quantified in a Cellomics array™ Array Scan V^Ti (http://www.cellomics.com/) using the Spot Detector BioApplication that had been optimized for detecting lipid accumulation in differentiated adipocytes. Effects of treatments were quantified using the ‘SpotCount’ and ‘SpotCountPerObject’ parameter that adequately reflects the differentiation status of the adipocytes.
The tested compounds were purchased from Sigma (PUFAs, i.e. DHA docosahexaenoic acid; EPA eicosapentaenoic acid) or Cayman Chemicals hydroxytyrosol), from DSM (hydroxytyrosol, resveratrol, genistein) or from Ehrenstorfer GmbH, Augsburg Germany (carotenoids like β-carotene, β-cryptoxanthin, lutein, lycopene, zeaxanithin); rose hip concentrate/powder was purchased from HybenVital (Denmark). The compounds to be tested were dissolved in dimethylsulfoxide (DMSO) or—in the case of carotenoids—in tetrahydrofuran (THF). Cells were preloaded with carotenoids, i.e. these were added to the culture medium when cells were seeded into test plates. Carotenoids were freshly prepared for every experimental series. Vehicle solution was added to reach a final concentration of 0.5% (v/v).
We further tested the effect of substances that were added to cultures concomitantly. The obtained values were then compared to the sum of the effect of individual substances: positive values indicate that two substances interact synergistically and thus surpass the individual effects.

[1] = 0.5 μM carotenoid (cells preloaded) + inducers
[2] = 1.0 μM carotenoid (cells preloaded) + inducers
[3] = 2.0 μM carotenoid (cells preloaded) + inducers
[4] = 1 μM compound + inducers of differentiation
[5] = 5 μM compound + inducers of differentiation
[6] = 25 μM compound + inducers of differentiation

Question: Which results are given for `CC1=C[C@H](O)CC(C)(C)[C@H]1/C=C/C(C)=C/C=C/C(C)=C/C=C/C=C(C)/C=C/C=C(C)/C=C/C1=C(C)C[C@@H](O)CC1(C)C` [lutein]?
Answer: activity at 0.5 µM [1]: 94.3%; activity at 1 µM [2]: 85.6%; activity at 2 µM [3]: 72.1%

Question: How did the “Cellular lipids (in % of differentiated cells)” value [1] turn out when `CC1=C(/C=C/C(C)=C/C=C/C(C)=C/C=C/C=C(C)/C=C/C=C(C)/C=C/C2=C(C)C[C@@H](O)CC2(C)C)C(C)(C)CCC1` [β-cryptoxanthin] was run?
Answer: Its value is 47.5%.

Question: What about the “Cellular lipids (in % of differentiated cells)” value [2] of the same compound?
Answer: Its value is 34.9%.

Question: What about the “Cellular lipids (in % of differentiated cells)” value [3] of the same compound?
Answer: The value was 16.2%.

Question: Which results are given for `O=c1c(-c2ccc(O)cc2)coc2cc(O)cc(O)c12` [Genistein, genistein]?
Answer: activity at 1 µM [4]: 112%; activity at 5 µM [5]: 99.7%; activity at 25 µM [6]: 95.9%; Effect on amount of cytoplasmic lipids (in words): only minor effects

Question: With `CC(C)=CCC/C(C)=C/C=C/C(C)=C/C=C/C(C)=C/C=C/C=C(C)/C=C/C=C(C)/C=C/C=C(\C)CCC=C(C)C` [lycopene] as the compound, how does the activity at 0.5 µM [1] read?
Answer: The activity at 0.5 µM was 44.5%.

Question: What about the activity at 1 µM [2] of the same compound?
Answer: Its activity at 1 µM is 45.1%.

Question: What about the activity at 2 µM [3] of the same compound?
Answer: The activity at 2 µM was 24.6%.

Question: How did the activity at 1 µM [4] turn out when `Oc1ccc(C=Cc2cc(O)cc(O)c2)cc1` [Resveratrol, resveratrol] was run?
Answer: Its activity at 1 µM is 106%.

Question: And the activity at 5 µM [5]?
Answer: Its activity at 5 µM is 102%.

Question: What about the activity at 25 µM [6] of the same compound?
Answer: The activity at 25 µM was 103%.

Question: What about the “Effect on amount of cytoplasmic lipids (in words)” value of the same compound?
Answer: Its value is “only minor effects”.

Question: `CC/C=C\C/C=C\C/C=C\C/C=C\C/C=C\CCCC(=O)O` [EPA, eicosapentaenoic acid] was tested. Which activity at 1 µM [4] did it give?
Answer: The activity at 1 µM was 86.6%.

Question: And the activity at 5 µM [5]?
Answer: The activity at 5 µM was 77%.

Question: What about the activity at 25 µM [6] of the same compound?
Answer: Its activity at 25 µM is 74.1%.

Question: For `CC1=C(/C=C/C(C)=C/C=C/C(C)=C/C=C/C=C(C)/C=C/C=C(C)/C=C/C2=C(C)CCCC2(C)C)C(C)(C)CCC1` [beta-carotene, β-carotene], which activity at 0.5 µM [1] is on record?
Answer: Its activity at 0.5 µM is 93%.

Question: And the activity at 1 µM [2]?
Answer: The activity at 1 µM was 66.7%.

Question: And the activity at 2 µM [3]?
Answer: Its activity at 2 µM is 69.4%.

Question: With (−)-epigallocatechin gallate [EGCG] as the compound, how does the “Cellular lipids (in % of differentiated cells)” value [4] read?
Answer: The value was 113.1%.

Question: What about the “Cellular lipids (in % of differentiated cells)” value [5] of the same compound?
Answer: Its value is 98.9%.

Question: What about the “Cellular lipids (in % of differentiated cells)” value [6] of the same compound?
Answer: Its value is 93.1%.

Question: What about the “Effect on amount of cytoplasmic lipids (in words)” value of the same compound?
Answer: The value was “only minor effects”.

Question: What does the source list for `OCCc1ccc(O)c(O)c1` [Hydroxytyrosol]?
Answer: activity at 1 µM [4]: 103%; activity at 5 µM [5]: 103%; activity at 25 µM [6]: 68.3%

Question: How did the “Cellular lipids (in % of differentiated cells)” value [1] turn out when `CC1=C(/C=C/C(C)=C/C=C/C(C)=C/C=C/C=C(C)/C=C/C=C(C)/C=C/C2=C(C)C[C@@H](O)CC2(C)C)C(C)(C)C[C@H](O)C1` [zeaxanthin] was run?
Answer: Its value is 56.8%.

Question: And the “Cellular lipids (in % of differentiated cells)” value [2]?
Answer: Its value is 39.5%.

Question: What about the “Cellular lipids (in % of differentiated cells)” value [3] of the same compound?
Answer: Its value is 43.7%.

Question: How did the activity at 1 µM [4] turn out when `CC/C=C\C/C=C\C/C=C\C/C=C\C/C=C\C/C=C\CCC(=O)O` [DHA, docosahexaenoic acid] was run?
Answer: Its activity at 1 µM is 95.9%.

Question: What about the activity at 5 µM [5] of the same compound?
Answer: The activity at 5 µM was 91.5%.

Question: What about the activity at 25 µM [6] of the same compound?
Answer: The activity at 25 µM was 66.2%.

Source: patent publication US20100015262A1, “NOVEL USE OF COMPOUNDS AND COMBINATIONS OF COMPOUNDS FOR IMPROVING THE PHYSICAL APPEARANCE” (priority 2006, published 2010)
